{"source": "ChEMBL document CHEMBL2331446", "about": "“Discovery of a potential anti-inflammatory agent: 3-oxo-29-noroleana-1,9(11),12-trien-2,20-dicarbonitrile” (J Med Chem, 2013)", "key": {"[1]": {"test_system": "RAW264.7", "assay": "Antiinflammatory activity in mouse RAW264.7 cells assessed as inhibition of LPS-induced NO production at 50 uM incubated for 2 hrs prior to LPS-challenge measured after 24 hrs by Griess method", "format": "functional"}, "[2]": {"test_system": "RAW264.7", "assay": "Inhibition of ERK phosphorylation in mouse LPS-induced RAW264.7 cells at 0.1 to 0.4 uM incubated for 2 hrs prior to LPS-challenge measured after 30 mins by Western blot analysis", "format": "cell-based"}, "[3]": {"test_system": "Mus musculus", "assay": "Antiinflammatory activity in ICR mouse assessed as protection against LPS-induced sepsis at 12.5 to 200 mg/kg, ip administered for 5 days prior to LPS-challenge measured after 2 hrs post last dose", "format": "functional, organism-based"}, "[4]": {"test_system": "RAW264.7", "assay": "Inhibition of JNK phosphorylation in mouse LPS-induced RAW264.7 cells at 0.1 to 0.4 uM incubated for 2 hrs prior to LPS-challenge measured after 30 mins by Western blot analysis", "format": "cell-based"}, "[5]": {"test_system": "RAW264.7", "assay": "Ratio of glycyrrhetinic acid to compound activity in mouse RAW264.7 cells", "format": "functional"}, "[6]": {"test_system": "RAW264.7", "assay": "Cytotoxicity against mouse RAW264.7 cells at 80 uM after 24 hrs by MTT assay", "format": "cell-based", "conditions": "raw264.7, 24 h"}, "[7]": {"test_system": "RAW264.7", "assay": "Antiinflammatory activity in mouse RAW264.7 cells assessed as inhibition of LPS-stimulated TNF-alpha mRNA expression at 0.2 to 0.4 uM incubated for 2 hrs prior to LPS-challenge measured after 8 hrs by quantitative real time PCR analysis", "format": "functional, cell-based"}, "[8]": {"target": "MAP kinase p38 (Mus musculus) (UniProt P47811+O08911+Q9WUI1+Q9Z1B7)", "assay": "Inhibition of MAPK p38 in mouse LPS-induced RAW264.7 cells at 0.1 to 0.4 uM incubated for 2 hrs prior to LPS-challenge measured after 30 mins by Western blot analysis", "format": "cell-based"}, "[9]": {"test_system": "RAW264.7", "assay": "Antiinflammatory activity in mouse RAW264.7 cells assessed as inhibition of LPS-induced iNOS protein expression incubated for 2 hrs prior to LPS-challenge measured after 24 hrs by Western blot analysis", "format": "functional, cell-based"}, "[10]": {"test_system": "RAW264.7", "assay": "Antiinflammatory activity in mouse RAW264.7 cells assessed as inhibition of LPS-induced NO production incubated for 2 hrs prior to LPS-challenge measured after 24 hrs by Griess method", "format": "functional, cell-based"}, "[11]": {"test_system": "RAW264.7", "assay": "Antiinflammatory activity in mouse RAW264.7 cells assessed as inhibition of NO production after 24 hrs in presence of mifepristone", "format": "functional, cell-based"}, "[12]": {"target": "T1, NF-kappa-B inhibitor alpha (Mus musculus) (UniProt Q9Z1E3)", "T1 sequence (whole entry)": "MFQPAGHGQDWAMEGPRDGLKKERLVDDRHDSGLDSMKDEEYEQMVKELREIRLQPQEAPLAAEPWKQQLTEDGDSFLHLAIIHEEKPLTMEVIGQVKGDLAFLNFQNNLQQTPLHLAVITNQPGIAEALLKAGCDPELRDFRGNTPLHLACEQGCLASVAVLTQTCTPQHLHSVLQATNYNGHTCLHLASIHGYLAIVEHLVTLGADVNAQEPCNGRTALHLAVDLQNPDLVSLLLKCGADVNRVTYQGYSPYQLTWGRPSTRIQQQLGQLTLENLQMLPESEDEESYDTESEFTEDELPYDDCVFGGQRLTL", "assay": "Inhibition of IkappaBalpha degradation in mouse LPS-induced RAW264.7 cells assessed as increase in cytosolic IkappaB level at 0.1 to 0.4 uM incubated for 2 hrs prior to LPS-challenge measured after 30 mins by Western blot analysis", "format": "cell-based"}, "[13]": {"test_system": "RAW264.7", "assay": "Antiinflammatory activity in mouse RAW264.7 cells assessed as inhibition of LPS-induced iNOS mRNA expression at 0.1 to 0.4 uM incubated for 2 hrs prior to LPS-challenge measured after 8 hrs by qPCR analysis", "format": "functional, cell-based"}, "[14]": {"test_system": "Mus musculus", "assay": "Antiinflammatory activity in ICR mouse assessed as reversal in LPS-induced weight loss at 12.5 to 200 mg/kg, ip administered for 5 days prior to LPS-challenge measured from day 9 to 11 relative to control", "format": "functional, organism-based"}, "[15]": {"test_system": "RAW264.7", "assay": "Effect on JNK level in mouse LPS-induced RAW264.7 cells at 0.1 to 0.4 uM incubated for 2 hrs prior to LPS-challenge measured after 30 mins by Western blot analysis", "format": "functional, cell-based"}, "[16]": {"test_system": "Mus musculus", "assay": "Antiinflammatory activity in ICR mouse assessed as protection against LPS-induced sepsis at 50 mg/kg, ip administered for 5 days prior to LPS-challenge measured after 2 hrs", "format": "functional, organism-based", "parameters": "dose 50 mg/kg"}, "[17]": {"test_system": "RAW264.7", "assay": "Antiinflammatory activity in mouse RAW264.7 cells assessed as inhibition of LPS-stimulated IL-6 mRNA expression incubated for 2 hrs prior to LPS-challenge measured after 8 hrs by quantitative real time PCR analysis relative to control", "format": "functional, cell-based"}, "[18]": {"test_system": "RAW264.7", "assay": "Effect on MAPK p38 level in mouse LPS-induced RAW264.7 cells at 0.1 to 0.4 uM incubated for 2 hrs prior to LPS-challenge measured after 30 mins by Western blot analysis", "format": "functional, cell-based"}, "[19]": {"target": "T1, NF-kappa-B inhibitor alpha (Mus musculus)", "assay": "Inhibition of IkappaBalpha in mouse RAW264.7 cells assessed as inhibition of LPS-stimulated NF-kappaB p65 subunit translocation to nucleus at 0.1 to 0.4 uM incubated for 2 hrs prior to LPS-challenge measured after 30 mins by Western blot analysis", "format": "cell-based"}, "[20]": {"test_system": "Mus musculus", "assay": "Antiinflammatory activity in ICR mouse assessed as reversal in LPS-induced weight loss at 12.5 to 200 mg/kg, ip administered for 5 days prior to LPS-challenge measured up to day 8 relative to control", "format": "functional, organism-based"}, "[21]": {"target": "T1, NF-kappa-B inhibitor alpha (Mus musculus)", "assay": "Inhibition of IkappaB phosphorylation in mouse LPS-induced RAW264.7 cells at 0.1 to 0.4 uM incubated for 2 hrs prior to LPS-challenge measured after 30 mins by Western blot analysis", "format": "cell-based"}, "[22]": {"test_system": "RAW264.7", "assay": "Antiinflammatory activity in mouse RAW264.7 cells assessed as inhibition of LPS-stimulated IL-1beta mRNA expression at 0.1 to 0.4 uM incubated for 2 hrs prior to LPS-challenge measured after 8 hrs by quantitative real time PCR analysis", "format": "functional, cell-based"}, "[23]": {"test_system": "RAW264.7", "assay": "Effect on ERK level in mouse LPS-induced RAW264.7 cells at 0.1 to 0.4 uM incubated for 2 hrs prior to LPS-challenge measured after 30 mins by Western blot analysis", "format": "functional, cell-based"}, "[24]": {"test_system": "RAW264.7", "assay": "Antiinflammatory activity in mouse RAW264.7 cells assessed as inhibition of LPS-stimulated IL-6 mRNA expression at 0.1 to 0.4 uM incubated for 2 hrs prior to LPS-challenge measured after 8 hrs by quantitative real time PCR analysis", "format": "functional, cell-based"}, "[25]": {"test_system": "RAW264.7", "assay": "Cytotoxicity against mouse LPS-challenged RAW264.7 cells at 80 uM after 24 hrs by MTT assay", "format": "cell-based", "conditions": "raw264.7, 24 h"}}, "note": "Active and inactive are the calls of the source. The rule behind the calls is not given here.", "data": [{"smiles": "CC1(C)C(=O)C(C#N)=C[C@]2(C)C3=CC=C4[C@@H]5C[C@@](C)(C#N)CC[C@]5(C)CC[C@@]4(C)[C@]3(C)CC[C@@H]12", "values": [{"measurement": "inhibition at 50 µM", "setting": "[1]", "result": 99.1, "unit": "%"}, {"measurement": "inhibition", "setting": "[2]", "result": "Active"}, {"measurement": "Activity", "setting": "[3]", "result": "inactive"}, {"measurement": "inhibition", "setting": "[4]", "result": "Active"}, {"measurement": "Ratio", "setting": "[5]", "result": 1000}, {"measurement": "Activity", "setting": "[6]", "result": "Non-toxic"}, {"measurement": "inhibition", "setting": "[7]", "result": "Active"}, {"measurement": "inhibition", "setting": "[8]", "result": "Active"}, {"measurement": "inhibition", "setting": "[9]", "result": "Dose-dependent effect"}, {"measurement": "IC50", "setting": "[10]", "result": 200, "unit": "nM"}, {"measurement": "inhibition", "setting": "[11]", "result": "Active"}, {"measurement": "inhibition", "setting": "[12]", "result": "Active"}, {"measurement": "inhibition", "setting": "[13]", "result": "Active"}, {"measurement": "Activity", "setting": "[14]", "result": "Active"}, {"measurement": "Activity", "setting": "[15]", "result": "inactive"}, {"measurement": "Activity", "setting": "[16]", "result": "Active"}, {"measurement": "inhibition", "setting": "[17]", "result": "inactive"}, {"measurement": "Activity", "setting": "[18]", "result": "inactive"}, {"measurement": "inhibition", "setting": "[19]", "result": "Active"}, {"measurement": "Activity", "setting": "[20]", "result": "inactive"}, {"measurement": "inhibition", "setting": "[21]", "result": "Active"}, {"measurement": "inhibition", "setting": "[22]", "result": "Dose-dependent effect"}, {"measurement": "Activity", "setting": "[23]", "result": "inactive"}, {"measurement": "inhibition", "setting": "[24]", "result": "Dose-dependent effect"}, {"measurement": "Activity", "setting": "[25]", "result": "Non-toxic"}]}]}
